The test system of the assay is L1210 leukemia ip in BDF1 mice, survival T/C. The assay is described as follows: NCI In Vivo Anticancer Drug Screen. Data for tumor model L1210 Leukemia (intraperitoneal) in B6D2F1 (BDF1) mice. As to conditions: endpoint: mean survival time, higher = longer survival. An outline of the steps: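 Mice bearing the transplanted tumor received compound or vehicle. Survival of the treated group was divided by that of the vehicle-treated control group to give the ratio.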

[1] abbreviates: dose: 100.0 mg/kg/injection, schedule: Q04DX003 (ip), vehicle: Klucel (hydroxypropylcellulose) (HPC).
[2] abbreviates: dose: 200.0 mg/kg/injection, schedule: Q04DX003 (ip), vehicle: Klucel (hydroxypropylcellulose) (HPC).
Setting [3] is: dose: 400.0 mg/kg/injection, schedule: Q04DX003 (ip), vehicle: Klucel (hydroxypropylcellulose) (HPC).
[4] abbreviates: dose: 100.0 mg/kg/injection, schedule: Q01DX009 (ip), vehicle: Klucel (hydroxypropylcellulose) (HPC).
Where [5] appears, read: dose: 25.0 mg/kg/injection, schedule: Q04DX002 (ip), vehicle: Klucel (hydroxypropylcellulose) (HPC).
The mark [6] stands for this setting: dose: 50.0 mg/kg/injection, schedule: Q04DX002 (ip), vehicle: Klucel (hydroxypropylcellulose) (HPC).
Where [7] appears, read: dose: 100.0 mg/kg/injection, schedule: Q04DX002 (ip), vehicle: Klucel (hydroxypropylcellulose) (HPC).
The mark [8] stands for this setting: dose: 200.0 mg/kg/injection, schedule: Q04DX002 (ip), vehicle: Klucel (hydroxypropylcellulose) (HPC).
Setting [9] is: dose: 10.0 mg/kg/injection, schedule: Q01DX001 (ip), vehicle: saline.
Where [10] appears, read: dose: 50.0 mg/kg/injection, schedule: Q01DX001 (ip), vehicle: saline.
The mark [11] stands for this setting: dose: 100.0 mg/kg/injection, schedule: Q01DX001 (ip), vehicle: saline.

Several values for one entry are separate records, joined by “and”; a condition that tells them apart may be missing. Identical values can stand only once. Inconclusive results and toxic doses are left out.

With `COc1cc(NC(N)=O)cc(OC)c1OC`, the T/C runs as follows: (dose: 100.0 mg/kg/injection, schedule: Q01DX009 (ip), vehicle: saline sonified) 101 % of control; under setting [1], 99 % of control; (dose: 200.0 mg/kg/injection, schedule: Q01DX009 (ip), vehicle: saline sonified) 95 % of control; under setting [2], 94 % of control; (dose: 400.0 mg/kg/injection, schedule: Q01DX009 (ip), vehicle: saline sonified) 101 % of control; under setting [3], 99 % of control.
Regarding `COc1ccc(OC)c(NC(=O)Nc2ccc(C(=O)O)c(O)c2)c1`, the T/C is 91 % of control under setting [4]; 103 % of control (dose: 200.0 mg/kg/injection, schedule: Q01DX009 (ip), vehicle: Klucel (hydroxypropylcellulose) (HPC)); 97 % of control (dose: 400.0 mg/kg/injection, schedule: Q01DX009 (ip), vehicle: Klucel (hydroxypropylcellulose) (HPC)).
For the compound `O=c1[nH]c2c(N3CCOCC3)cccc2o1`, the T/C was 93 % of control under setting [5], 97 % of control under setting [6] and 97 % of control under setting [7].
For the compound `Cc1ccc(NC(=S)N(CCC#N)C2CCCCC2)cc1C`, the T/C under setting [7] was 97 % of control; the T/C under setting [8] is 90 % of control; the T/C (dose: 400.0 mg/kg/injection, schedule: Q04DX002 (ip), vehicle: Klucel (hydroxypropylcellulose) (HPC)) is 90 % of control.
As for `O=C(Nc1ccc(C(=O)O)cc1)Nc1cc([N+](=O)[O-])ccc1F`, the T/C is, setting by setting: under setting [1], 92 % of control; under setting [2], 94 % of control; under setting [3], 94 % of control.
`CCC(CC)(C(=O)O)C(=O)O`: the T/C (dose: 25.0 mg/kg/injection, schedule: Q04DX003 (ip), vehicle: Klucel (hydroxypropylcellulose) (HPC)) is 93 % of control; the T/C (dose: 50.0 mg/kg/injection, schedule: Q04DX003 (ip), vehicle: Klucel (hydroxypropylcellulose) (HPC)) was 90 % of control; the T/C under setting [1] was 96 % of control and 88 % of control.
On to `NCC12CC3CC(CC(C3)C1)C2`, for which the T/C by setting is: (dose: 25.0 mg/kg/injection, schedule: Q01DX009 (ip), vehicle: Klucel (hydroxypropylcellulose) (HPC)) 107 % of control; under setting [5], 111 % of control; (dose: 50.0 mg/kg/injection, schedule: Q01DX009 (ip), vehicle: Klucel (hydroxypropylcellulose) (HPC)) 93 % of control; under setting [6], 107 % of control; under setting [4], 90 % of control; under setting [7], 96 % of control and 104 % of control.
Regarding `COc1ccc(C#N)cc1OC`, the T/C was 93 % of control (dose: 6.25 mg/kg/injection, schedule: Q04DX002 (ip), vehicle: Klucel (hydroxypropylcellulose) (HPC)); 96 % of control (dose: 12.5 mg/kg/injection, schedule: Q04DX002 (ip), vehicle: Klucel (hydroxypropylcellulose) (HPC)); 93 % of control and 96 % of control under setting [5]; 100 % of control under setting [7]; 92 % of control under setting [8].
Consider `N=C(N)c1cccc(NC(=O)c2ccc(C(=O)Nc3cccc(C(=N)N)c3)cc2)c1`, for which the T/C is, setting by setting: (dose: 8.0 mg/kg/injection, schedule: Q01DX Z (ip), vehicle: carboxymethylcellulose (CMC)) 95 % of control; (dose: 15.0 mg/kg/injection, schedule: Q01DX Z (ip), vehicle: saline) 95 % of control; (dose: 16.0 mg/kg/injection, schedule: Q01DX Z (ip), vehicle: carboxymethylcellulose (CMC)) 96 % of control; (dose: 30.0 mg/kg/injection, schedule: Q01DX Z (ip), vehicle: saline) 120 % of control; (dose: 31.0 mg/kg/injection, schedule: Q01DX Z (ip), vehicle: carboxymethylcellulose (CMC)) 106 % of control; (dose: 60.0 mg/kg/injection, schedule: Q01DX Z (ip), vehicle: saline) 104 % of control. In addition, where the note is “dose: 62.0 mg/kg/injection, schedule: Q01DX Z (ip), vehicle: carboxymethylcellulose (CMC)”, the T/C was 113 % of control.
As to `c1ccc([P+](c2ccccc2)(c2ccccc2)C2CN=NC2)cc1`, the T/C was 103 % of control under setting [9]; 108 % of control (dose: 20.0 mg/kg/injection, schedule: Q01DX001 (ip), vehicle: saline); 112 % of control (dose: 40.0 mg/kg/injection, schedule: Q01DX001 (ip), vehicle: saline).
For the compound `Cc1ccc([I+]c2ccccc2C(=O)[O-])c(C)c1`, the T/C was 98 % of control under setting [10]; 102 % of control under setting [11]; 104 % of control (dose: 200.0 mg/kg/injection, schedule: Q01DX001 (ip), vehicle: saline).
`CS(=O)(=O)OCCNC[C@@H](O)[C@@H](O)CNCCOS(C)(=O)=O`: the T/C (dose: 0.8 mg/kg/injection, schedule: Q01DX001 (ip), vehicle: saline) was 101 % of control; the T/C (dose: 1.4 mg/kg/injection, schedule: Q01DX001 (ip), vehicle: saline) was 112 % of control and 121 % of control; the T/C (dose: 2.3 mg/kg/injection, schedule: Q01DX001 (ip), vehicle: saline) was 112 % of control and 123 % of control; the T/C (dose: 6.5 mg/kg/injection, schedule: Q01DX001 (ip), vehicle: saline) is 122 % of control; the T/C (dose: 18.0 mg/kg/injection, schedule: Q01DX001 (ip), vehicle: saline) was 161 % of control; the T/C (dose: 30.0 mg/kg/injection, schedule: Q01DX001 (ip), vehicle: saline) is 151 % of control and 186 % of control. Further, the T/C reads like this: under setting [10], 207 % of control; under setting [11], 108 % of control.
Regarding `C[C@]12CCC(=O)C=C1CC[C@H]1[C@@H]3CC[C@](O)(C(=O)CO)[C@@]3(C)C[C@H](O)[C@@]12F`, the T/C was 103 % of control (dose: 50.0 mg/kg/injection, schedule: Q01DX001 (sc), vehicle: steriod suspending solution); 100 % of control (dose: 100.0 mg/kg/injection, schedule: Q01DX001 (sc), vehicle: steriod suspending solution); 105 % of control (dose: 200.0 mg/kg/injection, schedule: Q01DX001 (sc), vehicle: steriod suspending solution); 105 % of control (dose: 400.0 mg/kg/injection, schedule: Q01DX001 (sc), vehicle: steriod suspending solution).
In the case of `CN(C)C(=O)NCC[N+](C)(C)C`, the T/C is 100 % of control (dose: 100.0 mg/kg/injection, schedule: Q01DX009 (ip), vehicle: saline); 99 % of control (dose: 100.0 mg/kg/injection, schedule: Q04DX003 (ip), vehicle: saline); 106 % of control (dose: 200.0 mg/kg/injection, schedule: Q01DX009 (ip), vehicle: saline); 92 % of control (dose: 200.0 mg/kg/injection, schedule: Q04DX003 (ip), vehicle: saline); 97 % of control (dose: 400.0 mg/kg/injection, schedule: Q01DX009 (ip), vehicle: saline); 94 % of control (dose: 400.0 mg/kg/injection, schedule: Q04DX003 (ip), vehicle: saline).
Turning to `CCCCCCCC/C=C\CCCCCCCC(=O)OCCCCCCCCCCCCCCC`, the T/C reads like this: (dose: 100.0 mg/kg/injection, schedule: Q01DX009 (ip), vehicle: other) 96 % of control; (dose: 200.0 mg/kg/injection, schedule: Q01DX009 (ip), vehicle: other) 96 % of control; (dose: 400.0 mg/kg/injection, schedule: Q01DX009 (ip), vehicle: other) 96 % of control.
Regarding `CC(=O)Nc1cc(N(CCOS(C)(=O)=O)CCOS(C)(=O)=O)ccc1N=O`, the T/C (dose: 0.05 mg/kg/injection, schedule: Q01DX015 (ip), vehicle: saline) was 114 % of control; the T/C (dose: 0.1 mg/kg/injection, schedule: Q01DX015 (ip), vehicle: saline) was 123 % of control; the T/C (dose: 0.2 mg/kg/injection, schedule: Q01DX015 (ip), vehicle: saline) is 114 % of control; the T/C (dose: 0.4 mg/kg/injection, schedule: Q01DX015 (ip), vehicle: saline) is 114 % of control; the T/C (dose: 1.0 mg/kg/injection, schedule: Q01DX015 (ip), vehicle: saline) is 121 % of control; the T/C (dose: 1.7 mg/kg/injection, schedule: Q01DX015 (ip), vehicle: saline) was 119 % of control. Moreover, the T/C is 113 % of control (dose: 7.5 mg/kg/injection, schedule: Q01DX001 (ip), vehicle: saline) and 124 % of control under setting [9].
Regarding `OCC1OC(n2ncc3c(Cl)ccnc32)C(O)C1O` (stereo not given), the T/C (dose: 50.0 mg/kg/injection, schedule: Q01DX005 (ip), vehicle: other) is 91 % of control.
